Data on four compounds can be found in patent US20120114596A1, “TSLP PROMOTES IMMUNE EVASION AND PERSISTENCE OF VIRUSES” (priority 2009, published 2012).

Entries after “also recorded” stand apart in the source; their conditions may differ.

In one assay the test system is CD11c+ DCs. Format: cell-based, human.
In assay [1] the test system is DCs. Kind of assay: DC polarization / cytoskeleton architecture by epifluorescence microscopy. The format is cell-based, human.
The subject of assay [2] is DCs. In words: DC motility in micro-channel system (confined environment). Format: cell-based, human. The source says: A tissue represents a confined environment for cell migration (Irimia et al., Lab Chip, 2007, 7, 1783-1790). Cells may be “trapped” in narrow spaces, being forced to pass through areas of diverse densities. In order to mimic such in vivo situation, a micro-channel system was used. This system allows quantifying diverse parameters to define the cell movement and to restrain the direction of the mobile cells.
The microfluidic device was fabricated in PDMS (Whitesides G. M., E., O., Takayama S., X., J. & E, I. D. Ann Rev Biomed Eng, 2001 3, 335). The PDMS piece, with embedded microchannels and holes for the inlet and outlet ports, and a glass Iwaki chamber (Milian) were activated in a plasma cleaner (PDC-32G Harrick) and bonded to each other. The chambers were left under strong vacuum for 5 min in the plasma cleaner and plasma was turned on to render the top surface of the PDMS and the inlet and outlet holes hydrophilic. Fibronectin solution at 50 μg/ml was placed on top of the inlet and outlet ports. The solution spontaneously invaded the channels and all air bubbles were resorbed into the PDMS due to the previous vacuum treatment. Fibronectin was incubated for 1 h at room temperature, then washed with PBS then replaced by cell culture medium. The cells were concentrated and micropipette tips containing the cells were inserted in the inlet port. Cells fell inside the port, bound to the bottom coverslip and started migrating. They entered the channels spontaneously, without any mechanical or chemical stimulation.
Phase contrast […], using an automated microscope (Nikon ECLIPSE TE1000-E, and Olympus X71, with a Marzhauser motorized stage and an HQ2 Roper camera) equipped with an environmental chamber for temperature, humidity and CO2 (Life Imaging Services). Cells remained alive and motile during the entire period of recording.
To analyse the importance of myosin II in DCs migration, cells were pre-treated with […] blebbistatin and then concentrated and inserted in the microchannels.

A further assay concerns TSLP expression. Conditions: cited from earlier work.
Assay [3] deals with DCs. In words: DC activation by surface expression of CD40, CD80, CD86, OX40L.
For the next assay, the system named is Langerhans cells (LC). In words: Epidermal explant model of LC emigration. The format is cell-based, human. To be noted: FIGS. 2B and C. The source says: Next, epidermal explants were used as a global model to study the emigration of LC.
A further assay relates to naive CD4+ T cells. In words: Priming of naive CD4+ T cells by activated DCs, T cell cytokine profile. The format is cell-based, human. Conditions: DC:T 1:5, 5-6 days, re-stimulation. The protocol: After 24 h of culture, stimulated CD11c^+ DCs were collected, washed, and co-cultured with allogenic naïve CD4^+ T cells in round-bottomed plates 96-well culture plates (Falcon) at a 1:5 DC: T cell ratio in Yssel's medium (kind gift of Hans Yssel) containing 10% FCS (Hyclone). Peripheral blood naïve CD4^+ T cells were isolated by using CD4 T cell isolation kit II (Miltenyi Biotec) followed by staining for CD45RO-FITC, CD45RA-PE, CD4-APC, and cell sorting of CD45RA^+, CD4^+, CD45RO^− cells (purity>99%) with a FACSAria (BD Bioscience). Standard Th subsets were generated in presence of Dynabeads CD3/CD28 T cell expander (1 bead per cell) (Invitrogen) and 10 ng/ml IL-12 (R&D Systems) for Th1, 25 ng/ml IL-4 (R&D Systems) for Th2 and in absence of any polarizing cytokine for Th0.
After 5-6 days, cells were harvested, extensively washed and viability was determined by trypan blue exclusion. […] Cytokines in culture supernatants were measured by cytometric bead assay (CBA) Flex Sets (BD Bioscience) according to the manufacturer's instruction. IFN-γ-, IL-4-, IL-10-, TNF-producing cells were analysed by intracellular cytokine staining after addition of 10 μg/ml Brefeldin during the last 3 h of re-stimulation. […] Cells were stained with anti-IFN-γ FITC, anti-IL-4 PE, anti-IL-10 PE, anti-TNF PE (BD Pharmingen) washed and then analysed by flow cytometry (FACScan Becton Dickinson).

For `Cc1ccc2c(c1)C(=O)C1(O)CCN(c3ccccc3)C1=N2` (centres unmarked) [blebbistatin, reference compound], the “blebbistatin dose inhibiting TSLP-induced DC migration” value with CD11c+ DCs amounted to 20 nM. Further, in the assay on DCs [1] (TSLP with 20 nM blebbistatin, 12 h), the “morphology of TSLP-DCs under myosin II inhibition” value was “extremely elongated cellular shape”. Moreover, the “effect on TSLP-induced DC entry into micro-channels” value in the assay on DCs [2] (blebbistatin 50 nM pre-culture) is reported as “significantly inhibited”.
Regarding `c1ccc2ncncc2c1` [quinazoline], the “regulation of TSLP expression” value in the assay on TSLP expression is recorded as “negative regulators of TSLP expression”.
`CC1=C(/C=C/C(C)=C\C=C\C(C)=C\C(=O)O)C(C)(C)CCC1` [9-cis-retinoic acid]: the “regulation of TSLP expression” value in the assay with TSLP expression was “negative regulators of TSLP expression”.
Consider “TSLP: cytokine of the IL-7 family produced by epithelial cells; recombinant from R&D Systems”, for which, in the assay on CD11c+ DCs, the “DC migration in transwell” value is reported as “highly efficient for migration” and the “time after TSLP exposure at which migration started” value worked out at 3 h. Further, the “DC activation based on surface CD40, CD80 and CD86” value in the assay on DCs [3] (24 h of culture) is “strong up-regulation”. Besides, the “surface OX40-ligand (OX40L) expression on DC” value in the assay with DCs [3] (48 h of culture) is “up-regulation”. In addition, in the assay with Langerhans cells (LC), the “migration of CD1a+ Langerin+ TSLP-receptor+ CD80+ cells from epidermal explants” value is reported as “significantly increased; also recorded: more efficient than TNFa”. For the same compound, the “DC polarization (actin cytoskeleton morphology)” value with DCs [1] was “extremely polarized”. In addition, the “T cell cytokine profile induced by activated DC” value in the assay with naive CD4+ T cells is “Th2 profile”. The “increase in capacity of DCs to enter micro-channels vs control medium” value with DCs [2] (3 h time-lapse, n=3) amounted to 4 fold. Also, the “median velocity of DC in micro-channels vs medium” value with DCs [2] (DC pre-cultured in medium or TSLP) is listed as “no significant difference”.
